Experiment [1] is described as follows: Evaluation of sweetness level: choosing the sugar-added sample of equivalent sweetness intensity. It is filed as in vivo. As for the experimental part:
In order to evaluate the sweetness levels of Novel steviol glycosides A and B, samples were prepared by adding sugar to pure water to give Brix of 3.0 to 5.0 in 0.5 increments. Compounds 15 and 17 obtained by the chemical syntheses were used as Novel steviol glycosides A and B, respectively, where 48 mg of each sample was dissolved in 400 mL of pure water to be tested. In addition, samples were also prepared for comparison by dissolving 48 mg of each of Reb.A, Reb.D and Reb.M in 400 mL of pure water.

Experiment [2] can be described thus: Sensory evaluation of taste quality of beverage samples (sweetness on-set, lingering sweet aftertaste, bitterness, lingering bitter aftertaste). It is filed as in vivo.
Source text: In order to evaluate the taste quality of various steviol glycosides, Reb.A, Reb.D, Reb.M, sugar and Novel steviol glycoside A (Compound 15) were each added to pure water to prepare beverage samples. All of the beverage samples were adjusted to have final sweetness level (Brix) of 5 in terms of sugar (sucrose), and thus the sweetness levels of Reb.A, Reb.D, Reb.M and Novel steviol glycoside A (Compound 15) were 312, 317, 341 and 354, respectively.
(§1) The resulting beverage samples were subjected to sensory evaluation for rating the attributes, which were sweetness on-set, lingering sweet aftertaste, bitterness and lingering bitter aftertaste. Panelists who had been trained about sensory attributes of sweeteners (7 members) evaluated based on the following evaluation criteria. For each evaluation item, the steviol glycosides were scored in 0.5 increments provided that the score of sugar was 3. […]
as §1

The mark [3] stands for this setting: evaluation with Novel steviol glycoside A (Compound 15), restated averages of Table 2.
Setting [4] is: evaluation with Novel steviol glycoside B (Compound 17), restated averages of Table 3.

On to `C=C1CC23CCC4C(C)(C(=O)OC5OC(CO)C(O)C(O)C5OC5OCC(O)C(O)C5O)CCCC4(C)C2CCC1(OC1OC(CO)C(O)C(OC2OC(CO)C(O)C(O)C2O)C1OC1OC(CO)C(O)C(O)C1O)C3` (stereo not shown) [Novel steviol glycoside A], for which the “sweetness level, times higher in average than that of sugar” value in experiment [1] (average of panelists, 48 mg in 400 mL pure water) was “about 354 times”. For the same molecule, the “sweetness levels taken for adjusting the beverage samples to Brix 5 in terms of sugar” value in experiment [1] (setting [3]) came out at 354. For the same molecule, the “sweetness (sensory evaluation, in words)” value in experiment [2] (beverage samples in pure water, Brix 5 in terms of sugar, vs Reb.A, Reb.D, Reb.M, FIG. 14) is listed as “less sweetness”. The “lingering sweet and bitter aftertastes” value in experiment [2] (general statement in the description) is “less lingering sweet and bitter aftertastes”.
Consider `C=C1C[C@@]23CC[C@H]4[C@@](C)(CCC[C@@]4(C)C(=O)O[C@@H]4O[C@H](CO)[C@@H](O)[C@H](O)[C@H]4O)[C@@H]2CC[C@]1(O[C@@H]1O[C@H](CO)[C@@H](O)[C@H](O[C@@H]2O[C@H](CO)[C@@H](O)[C@H](O)[C@H]2O)[C@H]1O[C@@H]1O[C@H](CO)[C@@H](O)[C@H](O)[C@H]1O)C3` [Reb A, rebaudioside A], for which the “sweetness levels taken for adjusting the beverage samples to Brix 5 in terms of sugar” value in experiment [1] (setting [3]) is 312; in experiment [1] (setting [4]), 288.
For `C=C1C[C@@]23CC[C@H]4[C@@](C)(CCC[C@@]4(C)C(=O)O[C@@H]4O[C@H](CO)[C@@H](O)[C@H](O)[C@H]4O[C@@H]4O[C@H](CO)[C@@H](O)[C@H](O)[C@H]4O)[C@@H]2CC[C@]1(O[C@@H]1O[C@H](CO)[C@@H](O)[C@H](O[C@@H]2O[C@H](CO)[C@@H](O)[C@H](O)[C@H]2O)[C@H]1O[C@@H]1O[C@H](CO)[C@@H](O)[C@H](O)[C@H]1O)C3` [Reb D, rebaudioside D], in that order: 317 and 310.
For `C=C1C[C@@]23CC[C@H]4[C@@](C)(CCC[C@@]4(C)C(=O)O[C@@H]4O[C@H](CO)[C@@H](O)[C@H](O[C@@H]5O[C@H](CO)[C@@H](O)[C@H](O)[C@H]5O)[C@H]4O[C@@H]4O[C@H](CO)[C@@H](O)[C@H](O)[C@H]4O)[C@@H]2CC[C@]1(O[C@@H]1O[C@H](CO)[C@@H](O)[C@H](O[C@@H]2O[C@H](CO)[C@@H](O)[C@H](O)[C@H]2O)[C@H]1O[C@@H]1O[C@H](CO)[C@@H](O)[C@H](O)[C@H]1O)C3` [Reb M, rebaudioside M], in that order: 341 and 324.

(Values after patent publication US20220256902A1, “NOVEL STEVIOL GLYCOSIDE, METHOD FOR PRODUCING SAME, AND SWEETENER COMPOSITION CONTAINING SAME” (SUNTORY HOLDINGS LIMITED, priority 2019, published 2022).)
